Test results published in US20250109156A1, “INDOLE-CONTAINING MACROCYCLIC COMPOUNDS AND USES THEREOF” (JIANGSU AOSAIKANG PHARMACEUTICAL CO., LTD., priority 2022, published 2025).

Columns and labels:
CDK2/CyclinE1 = CDK2/CyclinE1 (Homo sapiens (Human), UniProt P24941); test: In vitro CDK2/CyclinE1 enzyme activity assay (TR-FRET); type: biochemical; settings: Ulight-4E-BP1 peptide, 25° C. 120 minutes
Experimental: Experimental Example 2: In Vitro CDK2/[…] Enzyme Activity Assay
CDK2/CyclinE1 was purchased from SignalChem. Ulight-4E-BP1 peptide, Eu-anti-phospho-tyrosine antibody, and 1× detection buffer were purchased from PerkinElmer. High-purity ATP was purchased from Promega. EDTA was purchased from Sigma. Nivo multimode microplate reader (PerkinElmer).
(§1) Preparation of kinase buffer: the kinase buffer containing 50 mM HEPES, 1 mM EDTA, 10 mM MgCl2, 0.01% Brij-35, pH 7.4.
(§2) 2.38 g of HEPES, 58 mg of EDTA, 406 mg of MgCl2, and 20 mg of Brij-35 were added to 200 mL of buffer, and the pH was adjusted to 7.4.
(§3) 100 μL of 1 M EDTA stock solution was mixed with 0.625 μL of 1× detection buffer and 1725 μL of distilled water to prepare the stop solution.
(§4) Enzyme, Ulight-4E-BP1 peptide, ATP, and inhibitors were diluted with the kinase buffer.
(§5) The Eu-anti-phospho-tyrosine antibody was diluted to a concentration of 8 nM/L using detection buffer.
The compounds to be tested were 5-fold diluted with a multi-channel pipette to the 8th concentration, i.e., from 40 μM to 0.512 nM, with a final DMSO concentration of 4%. The experiment was set up in duplicate wells. 2.5 μL of each concentration gradient of the inhibitor was added to the microplate, followed by 5 μL of CDK2/CyclinE1 enzyme (10 ng), and 2.5 μL of a mixture of substrate and ATP (4 mM ATP, 100 nM Ulight-4E-BP1 peptide). At this point, the final concentration gradient of the compound was 10 μM diluted to 0.128 nM. The reaction system was reacted at 25° C. for 120 minutes. After the reaction, 5 μL of stop solution was added to each well, and the reaction was continued at 25° C. for 5 minutes. After stopping the reaction, 5 μL of Eu-anti-phospho-tyrosine antibody dilution was added to each well, and the mixture was reacted at 25° C. for 60 minutes. Data were then collected using the PerkinElmer Nivo multimode microplate reader in TR-FRET mode (excitation wavelength: 320 nm, emission wavelength: 665 nm).
Using the equation (Sample−Min)/(Max−Min)*100% to convert the raw data into inhibition rate, the IC50 value may be obtained by curve fitting with four parameters (obtained by “log (inhibitor) vs. response—Variable slope” mode in GraphPad Prism). Table 1 provides the CDK2/CyclinE1 enzymatic inhibitory activity of the compounds of the present disclosure.

CDK9-CyclinT1 = CDK9-CyclinT1 (Homo sapiens (Human), UniProt P50750); test: In vitro CDK9-CyclinT1 enzyme activity assay (TR-FRET); type: biochemical; settings: Ulight-4E-BP1 peptide, 25° C. 120 minutes
Experimental: Experimental Example 3: In Vitro CDK9/[…] Enzyme Activity Assay
CDK9-CyclinT1 was purchased from CARNA. Ulight-4E-BP1 peptide, Eu-anti-phospho-tyrosine antibody, and 1× detection buffer were purchased from PerkinElmer. High-purity ATP was purchased from Promega. EDTA was purchased from Sigma. Nivo multimode microplate reader (PerkinElmer).
as §1, §2, §3, §4, §5
The compounds to be tested were 4-fold diluted with a multi-channel pipette to the 8th concentration, i.e., from 400 μM to 24.4 nM, with a final DMSO concentration of 4%. The experiment was set up in duplicate wells. 2.5 μL of each concentration gradient of the inhibitor was added to the microplate, followed by 5 μL of CDK9-CyclinT1 enzyme (2 ng), and 2.5 μL of a mixture of substrate and ATP (8 mM ATP, 50 nM Ulight-4E-BP1 peptide). At this point, the final concentration gradient of the compound was 100 μM diluted to 6.1 nM. The reaction system was reacted at 25° C. for 120 minutes. After the reaction, 5 μL of stop solution was added to each well, and the reaction was continued at 25° C. for 5 minutes. After stopping the reaction, 5 μL of Eu-anti-phospho-tyrosine antibody dilution was added to each well, and the mixture was reacted at 25° C. for 60 minutes. Data were then collected using the PerkinElmer Nivo multimode microplate reader in TR-FRET mode (excitation wavelength: 320 nm, emission wavelength: 665 nm).
Using the equation (Sample−Min)/(Max−Min)*100% to convert the raw data into inhibition rate, the IC50 value may be obtained by curve fitting with four parameters (obtained by “log (inhibitor) vs. response—Variable slope” mode in GraphPad Prism). Table 1 provides the CDK9-CyclinT1 enzymatic inhibitory activity of the compounds of the present disclosure.

HCC70 cells = test: In vitro HCC70 cell activity assay (CellTiter-Glo proliferation); type: cell-based; settings: Homo sapiens, 96 h, 4 days incubation
Experimental: Experimental Example 4: In Vitro HCC70 Cell Activity Assay
1640 culture medium, fetal bovine serum, penicillin/streptomycin antibiotics were purchased from WISENT. CellTiter-Glo (cell viability chemiluminescence detection reagent) reagent was purchased from Promega. HCC70 cell line was purchased from Nanjing Cobioer Biosciences Co. Ltd. Nivo multimode microplate reader (PerkinElmer).
The HCC70 cells were seeded in a white 96-well plate, with 80 μL of cell suspension per well, containing 6000 HCC70 cells each. The cell plate was incubated overnight in a CO2 incubator. The compounds to be tested were 3-fold diluted with a multi-channel pipette to the 8th concentration, i.e., diluted from 2 mM to […], and the experiment was set up in duplicate wells. 78 μL of culture medium was added to an intermediate plate, and then 2 μL of gradient diluted compound per well was transferred to the intermediate plate according to the corresponding position. After mixing well, the compound was transferred to the cell plate at 20 μL per well. The concentration of the compound transferred to the cell plate ranged from 10 μM to 1.52 nM. The cell plate was incubated in a CO2 incubator for 4 days. Another cell plate was prepared to measure the signal on the day of drug addition as the maximum value (denoted as Max in the equation below) for data analysis. 25 μL of cell viability chemiluminescence detection reagent was added to each well of this cell plate, and incubated at room temperature for 10 minutes to stabilize the luminescent signal. A multimode microplate reader was used for reading.
25 μL of cell viability chemiluminescence detection reagent was added to each well of this cell plate, and incubated at room temperature for 10 minutes to stabilize the luminescent signal. A multimode microplate reader was used for reading.
Using the equation (Sample−Min)/(Max−Min)*100% to convert the raw data into inhibition rate, the IC50 value may be obtained by curve fitting with four parameters (obtained by “log (inhibitor) vs. response—Variable slope” mode in GraphPad Prism). Table 1 provides the inhibitory activity of the compounds of the present disclosure on the proliferation of HCC70 cells.

CDK9-CyclinT1, sequence (P50750 whole entry): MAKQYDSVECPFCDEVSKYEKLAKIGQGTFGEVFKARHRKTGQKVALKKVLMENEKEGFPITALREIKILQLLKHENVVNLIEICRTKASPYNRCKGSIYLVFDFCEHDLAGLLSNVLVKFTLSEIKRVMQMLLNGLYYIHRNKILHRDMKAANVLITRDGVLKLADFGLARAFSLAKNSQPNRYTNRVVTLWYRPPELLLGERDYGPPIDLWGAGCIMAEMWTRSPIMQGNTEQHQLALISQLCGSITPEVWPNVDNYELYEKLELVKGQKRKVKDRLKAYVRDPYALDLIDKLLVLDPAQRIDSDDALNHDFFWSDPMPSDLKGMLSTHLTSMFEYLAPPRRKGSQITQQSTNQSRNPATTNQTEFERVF
CDK9-CyclinT1, sequence (O60563 whole entry partner): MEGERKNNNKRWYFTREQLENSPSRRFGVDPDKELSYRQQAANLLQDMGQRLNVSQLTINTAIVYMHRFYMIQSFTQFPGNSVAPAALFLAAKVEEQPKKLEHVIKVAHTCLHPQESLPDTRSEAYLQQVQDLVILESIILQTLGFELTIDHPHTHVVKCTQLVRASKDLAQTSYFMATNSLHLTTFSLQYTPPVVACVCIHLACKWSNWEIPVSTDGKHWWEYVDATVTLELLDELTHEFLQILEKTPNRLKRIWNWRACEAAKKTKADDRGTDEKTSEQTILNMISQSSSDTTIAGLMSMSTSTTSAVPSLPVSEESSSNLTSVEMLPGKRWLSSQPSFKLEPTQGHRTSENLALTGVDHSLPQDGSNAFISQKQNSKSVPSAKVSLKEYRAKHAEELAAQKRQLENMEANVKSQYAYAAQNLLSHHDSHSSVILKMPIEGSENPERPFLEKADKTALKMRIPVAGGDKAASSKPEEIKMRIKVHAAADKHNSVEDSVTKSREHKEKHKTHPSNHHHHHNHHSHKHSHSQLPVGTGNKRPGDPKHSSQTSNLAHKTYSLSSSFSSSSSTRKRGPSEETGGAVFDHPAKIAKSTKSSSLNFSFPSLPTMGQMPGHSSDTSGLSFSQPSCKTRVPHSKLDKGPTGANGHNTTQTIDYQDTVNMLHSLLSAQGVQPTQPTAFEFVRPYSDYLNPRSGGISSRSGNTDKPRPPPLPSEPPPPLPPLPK

| Compound | IC50 (CDK2/CyclinE1) [µM] | IC50 (CDK9-CyclinT1) [µM] | IC50 (HCC70 cells) [µM] |
| --- | --- | --- | --- |
| CN1CCCCN2CCCC[C@@H](C2)Nc2ncc(C(F)(F)F)c(n2)-c2c[nH]c3c(P(C)(C)=O)c(ccc23)C1=O [Compound 3] | > 1 | > 1 | 0.0014 |
| CP(C)(=O)c1c2ccc3c(c[nH]c13)-c1nc(ncc1C(F)(F)F)N[C@H]1CCCN(CCCCCCO2)C1 [Compound 4] | > 1 | > 1 | 0.0006 |
| CP(C)(=O)c1c2ccc3c(c[nH]c13)-c1nc(ncc1C(F)(F)F)N[C@H]1CCCN(CCCCNC2=O)C1 [Compound 5] | 0.738 | > 1 | 0.001 |
| CP(C)(=O)c1c2ccc3c(c[nH]c13)-c1nc(ncc1C(F)(F)F)N[C@H]1CCCCN(CCCCNC2=O)C1 [Compound 6] | > 1 | > 1 | 0.0018 |
| CN1CCCCN2CCC[C@@H](C2)Nc2ncc(C(F)(F)F)c(n2)-c2c[nH]c3c(P(C)(C)=O)c(ccc23)C1=O [Formate of compound 1] | 0.253 | 0.723 | < 0.0015 |
